From patent US20260265238A1, “COMPOUNDS AND PHARMACEUTICAL COMPOSITIONS THAT DEGRADE SWI/SNF-RELATED MATRIX-ASSOCIATED ACTIN-DEPENDENT REGULATOR OF CHROMATIN SUBFAMILY A” (Plexium, Inc., priority 2023, published 2026)

Assays:
[1] = target: T1, SMARCA2-HiBiT HeLa cells (protein which is expressed from the SMARCA2 gene) (Homo sapiens, UniProt P51531); assay: SMARCA2 degradation assay (HiBiT-fusion HeLa cell line, 24 h, luminescence); assay type: cell-based
T1 construct: protein which is expressed from the SMARCA2 and SMARCA4 genes; host or cells: HeLa (SMARCA2-HiBiT engineered line)
T1 sequence (P51531 whole entry, the tested form may be a part): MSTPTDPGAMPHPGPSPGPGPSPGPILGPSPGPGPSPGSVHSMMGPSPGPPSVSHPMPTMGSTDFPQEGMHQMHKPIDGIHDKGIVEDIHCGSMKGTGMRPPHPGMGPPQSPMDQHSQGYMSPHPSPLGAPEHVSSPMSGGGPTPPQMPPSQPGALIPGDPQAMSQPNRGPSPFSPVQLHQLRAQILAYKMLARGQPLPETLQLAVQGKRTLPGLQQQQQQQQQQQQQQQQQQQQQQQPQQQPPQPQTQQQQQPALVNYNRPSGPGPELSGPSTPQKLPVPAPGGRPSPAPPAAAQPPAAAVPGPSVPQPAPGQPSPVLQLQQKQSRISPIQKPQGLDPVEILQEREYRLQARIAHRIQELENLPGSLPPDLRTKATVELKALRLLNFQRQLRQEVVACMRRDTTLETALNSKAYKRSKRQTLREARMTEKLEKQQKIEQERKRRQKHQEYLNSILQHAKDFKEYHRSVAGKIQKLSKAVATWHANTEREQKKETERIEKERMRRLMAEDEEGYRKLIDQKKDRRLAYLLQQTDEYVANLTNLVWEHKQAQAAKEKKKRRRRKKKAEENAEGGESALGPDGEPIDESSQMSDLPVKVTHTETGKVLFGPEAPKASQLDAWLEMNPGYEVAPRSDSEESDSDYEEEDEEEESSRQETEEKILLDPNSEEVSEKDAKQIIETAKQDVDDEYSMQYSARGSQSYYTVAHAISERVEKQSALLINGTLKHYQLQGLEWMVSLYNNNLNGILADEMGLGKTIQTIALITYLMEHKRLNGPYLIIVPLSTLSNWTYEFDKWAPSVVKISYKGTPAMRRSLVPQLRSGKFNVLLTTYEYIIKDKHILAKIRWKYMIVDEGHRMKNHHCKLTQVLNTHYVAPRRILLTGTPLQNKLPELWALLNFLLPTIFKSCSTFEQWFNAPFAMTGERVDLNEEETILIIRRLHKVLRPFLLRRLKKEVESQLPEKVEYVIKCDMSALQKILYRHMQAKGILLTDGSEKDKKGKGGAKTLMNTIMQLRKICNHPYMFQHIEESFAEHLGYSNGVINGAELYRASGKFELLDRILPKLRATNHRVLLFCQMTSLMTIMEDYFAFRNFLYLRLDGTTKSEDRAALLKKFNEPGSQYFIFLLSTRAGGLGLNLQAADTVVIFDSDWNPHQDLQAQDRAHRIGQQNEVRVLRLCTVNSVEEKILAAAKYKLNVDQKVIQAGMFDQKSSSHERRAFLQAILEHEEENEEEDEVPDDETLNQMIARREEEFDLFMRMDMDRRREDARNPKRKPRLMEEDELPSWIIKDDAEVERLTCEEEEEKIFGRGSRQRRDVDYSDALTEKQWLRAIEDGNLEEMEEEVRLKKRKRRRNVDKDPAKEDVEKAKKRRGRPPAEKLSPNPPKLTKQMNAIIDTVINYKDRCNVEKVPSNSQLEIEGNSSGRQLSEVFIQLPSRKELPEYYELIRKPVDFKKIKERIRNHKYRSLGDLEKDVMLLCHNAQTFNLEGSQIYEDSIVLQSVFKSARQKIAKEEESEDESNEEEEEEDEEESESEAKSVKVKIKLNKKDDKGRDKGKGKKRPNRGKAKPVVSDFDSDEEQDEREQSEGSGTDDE
Method in brief: (§1)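 In this 24-hour cellular degradation readout, HiBiT-tagged HeLa lines received compound at up to typically 10 μM down to 300 pM in 10 points. After lysis with LgBiT and substrate, luminescence signals were used to build dose-response curves for DC50.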

[2] = target: T2, SMARCA4-HiBiT HeLa cells (protein which is expressed from the SMARCA4 gene) (Homo sapiens, UniProt P51532); assay: SMARCA4 degradation assay (HiBiT-fusion HeLa cell line, 24 h, luminescence); assay type: cell-based
T2 construct: protein which is expressed from the SMARCA2 and SMARCA4 genes; host or cells: HeLa (SMARCA4-HiBiT engineered line)
T2 sequence (P51532 whole entry, the tested form may be a part): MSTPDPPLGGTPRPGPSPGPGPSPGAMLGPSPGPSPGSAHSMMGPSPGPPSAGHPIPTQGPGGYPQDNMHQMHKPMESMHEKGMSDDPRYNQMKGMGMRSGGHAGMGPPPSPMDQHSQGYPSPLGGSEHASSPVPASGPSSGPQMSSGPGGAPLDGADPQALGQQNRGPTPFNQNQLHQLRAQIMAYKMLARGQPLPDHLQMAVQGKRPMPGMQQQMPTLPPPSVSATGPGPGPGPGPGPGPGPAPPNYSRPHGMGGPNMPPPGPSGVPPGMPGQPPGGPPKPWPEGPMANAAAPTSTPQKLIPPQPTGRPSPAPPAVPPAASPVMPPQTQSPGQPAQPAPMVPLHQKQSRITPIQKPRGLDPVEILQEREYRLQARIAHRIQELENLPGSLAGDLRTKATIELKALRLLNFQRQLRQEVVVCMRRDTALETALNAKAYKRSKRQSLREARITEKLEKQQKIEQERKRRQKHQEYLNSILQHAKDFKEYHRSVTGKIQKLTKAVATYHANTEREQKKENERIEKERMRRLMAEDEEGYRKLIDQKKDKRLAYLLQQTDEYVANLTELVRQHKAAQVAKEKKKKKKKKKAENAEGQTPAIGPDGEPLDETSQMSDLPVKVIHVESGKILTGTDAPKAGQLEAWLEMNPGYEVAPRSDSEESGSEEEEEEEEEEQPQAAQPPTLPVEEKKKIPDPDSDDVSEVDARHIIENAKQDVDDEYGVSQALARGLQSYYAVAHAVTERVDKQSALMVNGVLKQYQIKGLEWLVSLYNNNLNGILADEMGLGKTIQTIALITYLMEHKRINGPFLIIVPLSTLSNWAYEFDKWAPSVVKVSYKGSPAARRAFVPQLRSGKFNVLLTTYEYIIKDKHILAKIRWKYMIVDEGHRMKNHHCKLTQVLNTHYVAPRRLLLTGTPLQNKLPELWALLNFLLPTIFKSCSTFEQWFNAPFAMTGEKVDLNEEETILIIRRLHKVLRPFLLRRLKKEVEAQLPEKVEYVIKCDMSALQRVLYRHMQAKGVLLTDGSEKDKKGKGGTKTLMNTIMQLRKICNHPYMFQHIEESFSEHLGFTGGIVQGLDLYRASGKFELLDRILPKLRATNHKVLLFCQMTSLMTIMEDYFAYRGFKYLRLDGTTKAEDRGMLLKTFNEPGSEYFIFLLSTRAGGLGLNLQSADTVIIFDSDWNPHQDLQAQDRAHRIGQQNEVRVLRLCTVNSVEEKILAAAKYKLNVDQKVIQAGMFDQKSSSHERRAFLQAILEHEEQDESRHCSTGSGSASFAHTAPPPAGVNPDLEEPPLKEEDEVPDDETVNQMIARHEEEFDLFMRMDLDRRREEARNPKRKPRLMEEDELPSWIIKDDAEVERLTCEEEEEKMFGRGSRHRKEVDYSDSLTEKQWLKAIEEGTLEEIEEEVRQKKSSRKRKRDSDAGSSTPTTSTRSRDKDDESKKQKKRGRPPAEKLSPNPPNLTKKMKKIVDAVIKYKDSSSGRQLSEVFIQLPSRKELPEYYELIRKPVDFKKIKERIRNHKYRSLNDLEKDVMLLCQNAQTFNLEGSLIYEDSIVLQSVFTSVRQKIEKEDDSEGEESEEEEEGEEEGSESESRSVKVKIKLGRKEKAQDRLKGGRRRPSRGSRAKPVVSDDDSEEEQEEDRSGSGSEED
Method in brief: as §1

SMILES	DC50 [1] [nM]	SMARCA2 % Degradation @ 1 μM [1]	DC50 [2] [nM]	inhibition at 1 µM [2] [%]
C[C@@H]1CCN(c2cc(-c3ccccc3O)nnc2N)CCN1c1ccnc(/C=C/CN(C)C)n1 [Compound P-218, o-{5-[(R)-4-{2-[(E)-3-(dimethylamino)-1-propenyl]-4-pyrimidinyl}-5-methyl-1,4-diazepan-1-yl]-6-amino-3-pyridazinyl}phenol]	50 to 500	+++ (+++=>70%)	50 to 500	30 to 70
Nc1nnc(-c2ccccc2O)cc1OC1CC2CN(c3ccnc(C#CCn4ccnc4)n3)CC2C1 (stereo not shown) [Compound P-219, o-[6-amino-5-(3-{2-[3-(1-imidazolyl)-1-propynyl]-4-pyrimidinyl}-3-azabicyclo[3.3.0]oct-7-yloxy)-3-pyridazinyl]phenol]	50 to 500	+++ (+++=>70%)	50 to 500	> 70
Nc1nnc(-c2ccccc2O)cc1OC1CC2CN(c3ccnc(C#CCN4CCOCC4)n3)CC2C1 (stereo not shown) [Compound P-220, o-(6-amino-5-{3-[2-(3-morpholino-1-propynyl)-4-pyrimidinyl]-3-azabicyclo[3.3.0]oct-7-yloxy}-3-pyridazinyl)phenol]	50 to 500	+++ (+++=>70%)	50 to 500	30 to 70
CC(C)(C)OC(=O)NCC#Cc1nccc(N2CC3CC(Oc4cc(-c5ccccc5O)nnc4N)CC3C2)n1 (stereo not shown) [Compound P-221, 4-(3-{2-[3-(tert-butoxycarbonylamino)-1-propynyl]-4-pyrimidinyl}-3-azabicyclo[3.3.0]oct-7-yloxy)-6-(o-hydroxyphenyl)-3-pyridazinamine]	50 to 500	+++ (+++=>70%)	50 to 500	> 70
CN(C)CC#Cc1nccc(N2CC3CC(Oc4cc(-c5ccccc5O)nnc4N)CC3C2)n1 (stereo not shown) [Compound P-222, o-[6-amino-5-(3-{2-[3-(dimethylamino)-1-propynyl]-4-pyrimidinyl}-3-azabicyclo[3.3.0]oct-7-yloxy)-3-pyridazinyl]phenol]	50 to 500	+++ (+++=>70%)	50 to 500	> 70
C[C@@H]1CCN(c2cc(-c3ccccc3O)nnc2N)CCN1c1ccnc(C#CCN2[C@H](C)C[C@@H]2C)n1 [Compound P-223, o-{5-[(R)-4-(2-{3-[(2R,4S)-2,4-dimethyl-1-azetidinyl]-1-propynyl}-4-pyrimidinyl)-5-methyl-1,4-diazepan-1-y1]-6-amino-3-pyridazinyl}phenol]	< 50	++ (++=30-70%)	< 50	30 to 70
Nc1nnc(-c2ccccc2O)cc1N1CC2CCC(C1)N2c1nc(C#CCn2ccnc2)ncc1F [Compound P-224, o-[6-amino-5-(8-{5-fluoro-2-[3-(1-imidazolyl)-1-propynyl]-4-pyrimidinyl}-3,8-diazabicyclo[3.2.1]oct-3-yl)-3-pyridazinyl]phenol]	50 to 500	+++ (+++=>70%)	50 to 500	> 70
CN(C)CC#Cc1ncc(F)c(N2C3CCC2CN(c2cc(-c4ccccc4O)nnc2N)C3)n1 [Compound P-225, o-[6-amino-5-(8-{2-[3-(dimethylamino)-1-propynyl]-5-fluoro-4-pyrimidinyl}-3,8-diazabicyclo[3.2.1]oct-3-yl)-3-pyridazinyl]phenol]	< 50	++ (++=30-70%)	< 50	30 to 70
C[C@@H]1CCN(c2cc(-c3ccccc3O)nnc2N)CCN1c1nc(C#CCN(C)C)ncc1F [Compound P-226, o-{5-[(R)-4-{2-[3-(dimethylamino)-1-propynyl]-5-fluoro-4-pyrimidinyl}-5-mcthyl-1,4-diazcpan-1-yl]-6-amino-3-pyridazinyl}phenol]	< 50	++ (++=30-70%)	< 50	< 30
Cc1cnc(C#CCn2ccnc2)nc1N1CCN(c2cc(-c3ccccc3O)nnc2N)CC[C@H]1C [Compound P-227, o-{5-[(R)-4-{2-[3-(1-imidazolyl)-1-propynyl]-5-methyl-4-pyrimidinyl}-5-methyl-1,4-diazepan-1-yl]-6-amino-3-pyridaziny1} phenol]	50 to 500	+++ (+++=>70%)	50 to 500	30 to 70
C[C@@H]1CCN(c2cc(-c3ccccc3O)nnc2N)CCN1c1ccnc(C#CCN2C3CCCC2CC3)n1 [Compound P-228, o-{5-[(R)-4-(2-{3-(8-azabicyclo[3.2.1]oct-8-yl)-1-propynyl}-4-pyrimidinyl)-5-methyl-1,4-diazepan-1-y1]-6-amino-3-pyridazinyl}phenol]	< 50	++ (++=30-70%)	< 50	30 to 70
Cc1cnc(C#CCN(C)C)nc1N1CCN(c2cc(-c3ccccc3O)nnc2N)CC[C@H]1C [Compound P-229, o-{5-[(R)-4-{2-[3-(dimethylamino)-1-propynyl]-5-methyl-4-pyrimidinyl}-5-methyl-1,4-diazepan-1-yl]-6-amino-3-pyridaziny1}phenol]	< 50	+++ (+++=>70%)	50 to 500	30 to 70
C[C@@H]1CCN(c2cc(-c3ccccc3O)nnc2N)CCN1c1ccnc(C#CCN2CC(F)C2)n1 [Compound P-230, o-{5-[(R)-4-{2-[3-(3-fluoro-1-azetidinyl)-1-propynyl]-4-pyrimidinyl}-5-methyl-1,4-diazepan-1-y1]-6-amino-3-pyridaziny1}phenol]	50 to 500	++ (++=30-70%)	50 to 500	< 30
C[C@@H]1CCN(c2cc(-c3ccccc3O)nnc2N)CCN1c1ccnc(C#CC2CCCCN2C)n1 (stereo partly drawn) [Compound P-231, o-{5-[(R)-5-methyl-4-{2-[2-(1-methyl-2-piperidyl)ethynyl]-4-pyrimidinyl}-1,4-diazepan-1-yl]-6-amino-3-pyridaziny1} phenol]	< 50	++ (++=30-70%)	< 50	30 to 70
C[C@@H]1CCCN1CC#Cc1nccc(N2CCN(c3cc(-c4ccccc4O)nnc3N)CC[C@H]2C)n1 [Compound P-232, o-{5-[(R)-4-(2-{3-[(R)-2-methyl-1-pyrrolidinyl]-1-propynyl}-4-pyrimidinyl)-5-methyl-1,4-diazepan-1-yl]-6-amino-3-pyridazinyl}phenol]	< 50	+++ (+++=>70%)	< 50	30 to 70
C[C@@H]1CCN(c2cc(-c3ccccc3O)nnc2N)CCN1c1ccnc(C#CCN2CCC[C@@H]2C)n1 [Compound P-233, o-{5-[(R)-4-(2-{3-[(S)-2-methyl-1-pyrrolidinyl]-1-propynyl}-4-pyrimidinyl)-5-methyl-1,4-diazepan-1-yl]-6-amino-3-pyridazinyl} phenol]	< 50	++ (++=30-70%)	< 50	30 to 70
C[C@@H]1CCN(c2cc(-c3ccccc3O)nnc2N)CCN1c1ccnc(C#CCN2CC3CC2C3)n1 [Compound P-234, o-{5-[(R)-4-(2-{3-(2-azabicyclo[2.1.1]hex-2-yl)-1-propynyl}-4-pyrimidinyl)-5-methyl-1,4-diazepan-1-yl]-6-amino-3-pyridazinyl}phenol]	< 50	+++ (+++=>70%)	< 50	30 to 70
Cc1nn2ccn(CC#Cc3nccc(N4CCN(c5cnnc(-c6ccccc6O)c5)CC[C@H]4C)n3)c(=O)c2c1C [Compound P-235, 5-[3-(4-{ (R)-4-[6-(o-hydroxyphenyl)-4-pyridaziny1]-7-methyl-1,4-diazepan-1-yl}-2-pyrimidinyl)-2-propynyl]-2,3-dimethyl-1,5,7a-triaza-4(5H)-indenone]	50 to 500	+ (+=<30%)	500 to 5000	< 30
C[C@@H]1CCN(c2cc(-c3ccccc3O)nnc2N)CCN1c1ccnc(C#CCN2CC[C@@H](F)C2)n1 [Compound P-236, o-{5-[(R)-4-(2-{3-[(R)-3-fluoro-1-pyrrolidinyl]-1-propynyl}-4-pyrimidinyl)-5-methyl-1,4-diazepan-1-yl]-6-amino-3-pyridaziny1} phenol]	< 50	++ (++=30-70%)	< 50	< 30
C[C@@H]1CCN(c2cc(-c3ccccc3O)nnc2N)CCN1c1ccnc(C#CCN2CCC3(CCC3)C2)n1 [Compound P-237, o-{5-[(R)-4-(2-{3-(6-aza-6-spiro| 3.4 | octyl)-1-propynyl}-4-pyrimidinyl)-5-methyl-1,4-diazepan-1-yl]-6-amino-3-pyridazinyl} phenol]	< 50	+++ (+++=>70%)	< 50	30 to 70
C[C@@H]1CCN(c2cc(-c3ccccc3O)nnc2N)CCN1c1ccnc(C#CCNC(=O)OC(C)(C)C)n1 [Compound P-238]	50 to 500	+++ (+++=>70%)	50 to 500	30 to 70
Cc1c(C(=O)NCC#Cc2nccc(N3CCN(c4cc(-c5ccccc5O)nnc4N)CC[C@H]3C)n2)nn(C)c1C [Compound P-239, N-[3-(4-{ (R)-4-[3-amino-6-(o-hydroxyphenyl)-4-pyridazinyl]-7-methyl-1,4-diazepan-1-y1}-2-pyrimidinyl)-2-propynyl]-1-methyl-4,5-dimethyl-3-pyrazolecarboxamide]	50 to 500	++ (++=30-70%)	50 to 500	30 to 70
